Laboratory results reported in article PMC11106739, “Discovery and Derivatization of Tridecaptin Antibiotics with Altered Host Specificity and Enhanced Bioactivity” (ACS Chemical Biology, 2024).
Values after ≈ are worked out from the molar mass of the structure shown. Where two headings read alike, the source gives them in different places. Where a SMILES comes first, the peptide text is derived from it. Bridges are numbered along the chain shown (N, C = ends). [ ]: non-standard residue; d: D form. The star is where a group is joined. d(aIle) = CC[C@H](C)[C@@H](N)C(=O)O; X1 = CC[C@H](C)CCCCC(=O)*; dDab = NCC[C@@H](N)C(=O)O; Octanoyl = CCCCCCCC(=O)*; Dab = NCC[C@H](N)C(=O)O

Key:
[1] = test system: S. aureus 1126387; format: cell-based, Staphylococcus aureus
Protocol: (§1) All minimum inhibitory concentrations (MICs) were determined according to the Clinical and Standards Laboratory Institute (CLSI) guidelines. In brief, agar plates were inoculated from glycerol stocks and incubated overnight at 35 °C. Peptide DMSO stocks were dispensed into 96-well round-bottom plates using a TECAN D300e dispenser. Colistin sulfate (Sigma-Aldrich) was dissolved in water and serially diluted in a cation-adjusted Mueller Hinton broth (10 μL per well). Final concentrations of the test compounds were 0.06 to 64 μg/mL. Inocula were prepared by direct colony suspension in NaCl at 0.5 MacFarland, which was further diluted 200-fold in cation-adjusted Mueller Hinton broth for a target inoculum of 2 × 10^5 colony forming units (CFUs)/mL. 100 μL portion of the prepared inoculum was added to each well of the prepared plates containing the test compounds. Plates were sealed with parafilm and incubated for 20 h at 35 °C. Images of all plates were recorded, and MIC was assessed visually.

[2] = test system: S. aureus ATCC 29213; format: cell-based, Staphylococcus aureus
Protocol: as §1

[3] = test system: S. aureus UAMS-1625; format: cell-based, Staphylococcus aureus; conditions: S. aureus UAMS-1625 (BV18); CLSI broth dilution, cation-adjusted Mueller Hinton broth, 20 h, 35 °C, read visually
Protocol: as §1

[4] = test system: ATCC 25922; format: cell-based, Enterococcus faecalis
Protocol: as §1

[5] = test system: E. faecalis ATCC 29212; format: cell-based, Enterococcus faecalis
Protocol: as §1

[6] = test system: E. faecium ATCC 51559; format: cell-based, Enterococcus faecium
Protocol: as §1

[7] = test system: E. faecium IHMA 890472; format: cell-based, Enterococcus faecium
Protocol: as §1

[8] = test system: A. baumannii ATCC 17978; format: cell-based, Acinetobacter baumannii
Protocol: as §1

[9] = test system: A. baumannii HUMC1; format: cell-based, Acinetobacter baumannii
Protocol: as §1

[10] = test system: A. baumannii IHMA 777621; format: cell-based, Acinetobacter baumannii
Protocol: as §1

[11] = test system: E. coli 1214245; format: cell-based, Escherichia coli
Protocol: as §1

[12] = test system: E. coli 1220120; format: cell-based, Escherichia coli
Protocol: as §1

[13] = test system: E. coli ATCC 25922; format: cell-based, Escherichia coli
Protocol: as §1

[14] = test system: K. pneumoniae 1227947; format: cell-based, Klebsiella pneumoniae
Protocol: as §1

[15] = test system: K. pneumoniae 1228586; format: cell-based, Klebsiella pneumoniae
Protocol: as §1

[16] = test system: K. pneumoniae ATCC 13883; format: cell-based, Klebsiella pneumoniae
Protocol: as §1

[17] = test system: P. aeruginosa 1218019; format: cell-based, Pseudomonas aeruginosa
Protocol: as §1

[18] = test system: P. aeruginosa 1226072; format: cell-based, Pseudomonas aeruginosa
Protocol: as §1

[19] = test system: P. aeruginosa PAO1; format: cell-based, Pseudomonas aeruginosa
Protocol: as §1

[20] = test system: Rabbit red blood cells; assay: Hemolysis assay; format: cell-based; conditions: rabbit red blood cells in PBS, 37 °C, 1 h, absorbance at 405 nm, normalization to the Triton X-100 control; 0.25 to 128 μg/mL tested
Protocol: Peptides, dissolved in DMSO, were dispensed into 96-well round-bottom microplates using a TECAN D300e dispenser and subsequently diluted with 100 μL of PBS. PBS or 2% Triton X-100 was used as negative and positive controls, respectively. Rabbit red blood cells (BioConcept) were diluted in PBS to a final concentration of 2%, and 100 μL was added to each well of the prepared 96-well plates. The final concentration of the test compounds was 0.25 to 128 μg/mL. Plates were incubated at 37 °C for 1 h and afterward subjected to centrifugation at 1000g for 5 min. Then, 30 μL of supernatant was transferred to a new round-bottom plate, and absorbance was measured at 405 nm (TECAN Infinite F200). EC50s were calculated after blank subtraction and normalization to the Triton control.

[21] = test system: HepG2 cells; assay: Cytotoxicity determination (CellTiter-Glo); format: cell-based; conditions: HepG2, medium without serum, 24 h, normalization to the untreated control, 1 to 128 μg/mL tested
Protocol: HepG2 cells were grown in EMEM (Sigma) supplemented with 2 mM glutamine and 10% fetal bovine serum (Fisher) at 37 °C, 5% CO2. 20′000 cells per well were seeded into clear tissue culture-treated 96-well plates and incubated for 24 h. Peptides, dissolved in DMSO, were dispensed into 96 deep well plates (TECAN D300e dispenser) and diluted to a final concentration of 1 to 128 μg/mL using fresh medium without serum. The next day, the old media were removed from the cells, and 200 μL of the prepared compound dilutions was added per well. Plates were incubated for another 24 h before assessing the cell viability using the CellTiter-Glo kit (Promega) according to the manufacturer’s protocol. IC50s were calculated after normalization to the untreated control.

SMILES | MIC ([1]; 1126387, 20 h) [µg/mL] | MIC ([2]; ATCC 29213, 20 h) [µg/mL] | MIC [3] [µg/mL] | MIC ([4]; ATCC 25922, 20 h) [µg/mL] | MIC ([5]; ATCC 29212, 20 h) [µg/mL] | MIC ([6]; ATCC 51559, 20 h) [µg/mL] | MIC ([7]; IHMA 890472, 20 h) [µg/mL] | MIC ([8]; ATCC 17978, 20 h) [µg/mL] | MIC ([9]; HUMC1, 20 h) [µg/mL] | MIC ([10]; IHMA 777621, 20 h) [µg/mL] | MIC ([11]; 1214245, 20 h) [µg/mL] | MIC ([12]; 1220120, 20 h) [µg/mL] | MIC ([13]; ATCC 25922, 20 h) [µg/mL] | MIC ([14]; 1227947, 20 h) [µg/mL] | MIC ([15]; 1228586, 20 h) [µg/mL] | MIC ([16]; ATCC 13883, 20 h) [µg/mL] | MIC ([17]; 1218019, 20 h) [µg/mL] | MIC ([18]; 1226072, 20 h) [µg/mL] | MIC ([19]; PAO1, 20 h) [µg/mL] | Hemolysis EC50 [20] [µg/mL] | further results
CCCCCCCC(=O)N[C@@H](C(=O)N[C@H](CCN)C(=O)NCC(=O)N[C@H](CO)C(=O)N[C@H](Cc1c[nH]c2ccccc12)C(=O)N[C@@H](CO)C(=O)N[C@@H](CCN)C(=O)N[C@H](CCN)C(=O)N[C@@H](Cc1c[nH]cn1)C(=O)N[C@@H](CCC(=O)O)C(=O)N[C@H](C(=O)N[C@@H](C(=O)N[C@@H](C)C(=O)O)[C@@H](C)CC)C(C)C)C(C)C [Oct-His9] (Octanoyl-[dV][dDab]G[dS][dW]S[Dab][dDab]HEV[d(aIle)]A-OH) | >64 | >64 | >64 | >64 | >64 | >64 | >64 | >64 | >64 | >64 | 16 (≈ 10.6 µM) | 8 (≈ 5.3 µM) | 16 (≈ 10.6 µM) | 32 (≈ 21.2 µM) | 8 (≈ 5.3 µM) | 16 (≈ 10.6 µM) | 2 (≈ 1.32 µM) | 4 (≈ 2.65 µM) | 32 (≈ 21.2 µM) | >128 | IC50 on HepG2 w/o FCS [21]: >128 µg/mL
CCCCCCCC(=O)N[C@@H](C(=O)N[C@H](CCN)C(=O)NCC(=O)N[C@H](CO)C(=O)N[C@H](Cc1c[nH]c2ccccc12)C(=O)N[C@@H](CO)C(=O)N[C@@H](CCN)C(=O)N[C@H](CCN)C(=O)N[C@H](C(=O)N[C@@H](CCC(=O)O)C(=O)N[C@H](C(=O)N[C@@H](C(=O)N[C@@H](C)C(=O)O)[C@@H](C)CC)C(C)C)[C@@H](C)CC)C(C)C [Oct-Ile9] (Octanoyl-[dV][dDab]G[dS][dW]S[Dab][dDab]IEV[d(aIle)]A-OH) | >64 | 64 (≈ 43 µM) | >64 | 64 (≈ 43 µM) | 64 (≈ 43 µM) | 64 (≈ 43 µM) | 32 (≈ 21.5 µM) | 16 (≈ 10.8 µM) | 16 (≈ 10.8 µM) | 16 (≈ 10.8 µM) | 2 (≈ 1.35 µM) | 2 (≈ 1.35 µM) | 2 (≈ 1.35 µM) | 4 (≈ 2.69 µM) | 4 (≈ 2.69 µM) | 2 (≈ 1.35 µM) | 16 (≈ 10.8 µM) | 16 (≈ 10.8 µM) | 64 (≈ 43 µM) | >128 | –
CCCCCCCC(=O)N[C@@H](C(=O)N[C@H](CCN)C(=O)NCC(=O)N[C@H](CO)C(=O)N[C@H](Cc1c[nH]c2ccccc12)C(=O)N[C@@H](CO)C(=O)N[C@@H](CCN)C(=O)N[C@H](CCN)C(=O)N[C@@H](Cc1ccc(O)cc1)C(=O)N[C@@H](CCC(=O)O)C(=O)N[C@H](C(=O)N[C@@H](C(=O)N[C@@H](C)C(=O)O)[C@@H](C)CC)C(C)C)C(C)C [Oct-Tyr9] (Octanoyl-[dV][dDab]G[dS][dW]S[Dab][dDab]YEV[d(aIle)]A-OH) | >64 | >64 | >64 | 64 (≈ 41.6 µM) | 64 (≈ 41.6 µM) | 64 (≈ 41.6 µM) | 32 (≈ 20.8 µM) | 32 (≈ 20.8 µM) | 32 (≈ 20.8 µM) | 32 (≈ 20.8 µM) | 2 (≈ 1.3 µM) | 4 (≈ 2.6 µM) | 2 (≈ 1.3 µM) | 4 (≈ 2.6 µM) | 4 (≈ 2.6 µM) | 4 (≈ 2.6 µM) | 4 (≈ 2.6 µM) | 4 (≈ 2.6 µM) | 64 (≈ 41.6 µM) | – | –
CC[C@H](C)CCCCC(=O)N[C@@H](CCN)C(=O)N[C@H](C(=O)N[C@@H](CCN)C(=O)N[C@H]1CCNC(=O)[C@H]([C@@H](C)O)NC(=O)[C@H](CCN)NC(=O)[C@H](CCN)NC(=O)[C@H](CC(C)C)NC(=O)[C@@H](CC(C)C)NC(=O)[C@H](CCN)NC1=O)[C@@H](C)O [colistin, reference compound] (X1-[Dab]T[Dab][Dab][Dab][dL]L[Dab][Dab]T; lactam 4-C (inferred); N-terminus assumed) | – | – | >64 | – | – | – | – | – | – | – | – | – | – | – | – | – | – | – | – | – | MIC ([1]; S. aureus 1126387 (BV1402), CLSI broth dilution, cation-adjusted Mueller Hinton broth, 20 h, 35 °C, read visually): >64 µg/mL; MIC ([2]; S. aureus ATCC 29213 (BV249), CLSI broth dilution, cation-adjusted Mueller Hinton broth, 20 h, 35 °C, read visually): >64 µg/mL; MIC ([4]; E. faecalis ATCC 25922 (BV99), CLSI broth dilution, cation-adjusted Mueller Hinton broth, 20 h, 35 °C, read visually): >64 µg/mL; MIC ([5]; E. faecalis ATCC 29212 (BV29), CLSI broth dilution, cation-adjusted Mueller Hinton broth, 20 h, 35 °C, read visually): >64 µg/mL; MIC ([6]; E. faecium ATCC 51559 (BV159), CLSI broth dilution, cation-adjusted Mueller Hinton broth, 20 h, 35 °C, read visually): >64 µg/mL; MIC ([7]; E. faecium IHMA 890472 (BV144), CLSI broth dilution, cation-adjusted Mueller Hinton broth, 20 h, 35 °C, read visually): >64 µg/mL; MIC ([8]; A. baumannii ATCC 17978 (BV160), CLSI broth dilution, cation-adjusted Mueller Hinton broth, 20 h, 35 °C, read visually): 1 µg/mL (≈ 0.855 µM); MIC ([9]; A. baumannii HUMC1 (BV374), CLSI broth dilution, cation-adjusted Mueller Hinton broth, 20 h, 35 °C, read visually): 1 µg/mL (≈ 0.855 µM); MIC ([10]; A. baumannii IHMA 777621 (BV94), CLSI broth dilution, cation-adjusted Mueller Hinton broth, 20 h, 35 °C, read visually): 64 µg/mL (≈ 54.7 µM); MIC ([11]; E. coli 1214245 (BV1469), CLSI broth dilution, cation-adjusted Mueller Hinton broth, 20 h, 35 °C, read visually): 32 µg/mL (≈ 27.4 µM); MIC ([12]; E. coli 1220120 (BV1475), CLSI broth dilution, cation-adjusted Mueller Hinton broth, 20 h, 35 °C, read visually): 0.5 µg/mL (≈ 0.428 µM); MIC ([13]; E. coli ATCC 25922 (BV23), CLSI broth dilution, cation-adjusted Mueller Hinton broth, 20 h, 35 °C, read visually): 1 µg/mL (≈ 0.855 µM); MIC ([14]; K. pneumoniae 1227947 (BV1445), CLSI broth dilution, cation-adjusted Mueller Hinton broth, 20 h, 35 °C, read visually): 0.5 µg/mL (≈ 0.428 µM); MIC ([15]; K. pneumoniae 1228586 (BV1447), CLSI broth dilution, cation-adjusted Mueller Hinton broth, 20 h, 35 °C, read visually): 64 µg/mL (≈ 54.7 µM); MIC ([16]; K. pneumoniae ATCC 13883 (BV306), CLSI broth dilution, cation-adjusted Mueller Hinton broth, 20 h, 35 °C, read visually): 1 µg/mL (≈ 0.855 µM); MIC ([17]; P. aeruginosa 1218019 (BV1544), colistin-resistant, CLSI broth dilution, cation-adjusted Mueller Hinton broth, 20 h, 35 °C, read visually): >64 µg/mL; MIC ([18]; P. aeruginosa 1226072 (BV1551), CLSI broth dilution, cation-adjusted Mueller Hinton broth, 20 h, 35 °C, read visually): 0.5 µg/mL (≈ 0.428 µM); MIC ([19]; P. aeruginosa PAO1 (BV34), CLSI broth dilution, cation-adjusted Mueller Hinton broth, 20 h, 35 °C, read visually): 2 µg/mL (≈ 1.71 µM); IC50 on HepG2 w/o FCS [21]: >128 µg/mL
